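Values below derive from 48-hour exposures of cells grown in 96-well plates, with endpoints linearly interpolated between the two concentrations bracketing the appropriate inhibition level. The concentration for 50% growth inhibition is given as GI50.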 Calls of active or inactive are those of the source. Rule as the data show it: active = GI50 up to about 1.1 µM and inactive = higher.
Key:
Assay in all cases: NCI tumour cell line growth inhibition, 48 h
HL-60 = test system: HL-60
UACC-62 = test system: UACC-62
OVCAR-5 = test system: OVCAR-5
NCI-H226 = test system: NCI-H226
RXF 393 = test system: RXF 393
NCI-H23 = test system: NCI-H23
OVCAR-4 = test system: OVCAR-4
BT-549 = test system: BT-549
KM12 = test system: KM12
MOLT-4 = test system: MOLT-4
SN12C = test system: SN12C
LOX IMVI = test system: LOX IMVI
Malme-3M = test system: Malme-3M
K562 = test system: K562
MDA-N = test system: MDA-N
IGROV-1 = test system: IGROV-1
TK-10 = test system: TK-10
SK-OV-3 = test system: SK-OV-3
SF-539 = test system: SF-539
EKVX = test system: EKVX

Row | Structure (SMILES) | GI50 (HL-60) | GI50 (UACC-62) | GI50 (OVCAR-5) | GI50 (NCI-H226) | GI50 (RXF 393) | GI50 (NCI-H23) | GI50 (OVCAR-4) | GI50 (BT-549) | GI50 (KM12) | GI50 (MOLT-4) | GI50 (SN12C) | GI50 (LOX IMVI) | GI50 (Malme-3M) | GI50 (K562) | GI50 (MDA-N) | GI50 (IGROV-1) | GI50 (TK-10) | GI50 (SK-OV-3) | GI50 (SF-539) | GI50 (EKVX)
1 | CCOC(=O)c1c(SCCN2CCOCC2)n(-c2ccccc2)c(=S)n(-c2ccccc2)c1=O | 20.8 µM (inactive) | 49.8 µM (inactive) | > 100 µM (inactive) | 38.5 µM (inactive) | 18.6 µM (inactive) | 32.4 µM (inactive) | > 100 µM (inactive) | 39.3 µM (inactive) | > 100 µM (inactive) | 26.7 µM (inactive) | > 100 µM (inactive) | 18.5 µM (inactive) | > 100 µM (inactive) | 19 µM (inactive) | 36.5 µM (inactive) | 42.5 µM (inactive) | > 100 µM (inactive) | – | – | –
2 | O=C(O)CC(NC(=O)C(F)(F)F)C(=O)NC1Cc2ccccc2OC1=O (stereo not drawn) | – | > 100 µM (inactive) | > 100 µM (inactive) | > 100 µM (inactive) | > 100 µM (inactive) | > 100 µM (inactive) | – | > 100 µM (inactive) | > 100 µM (inactive) | > 100 µM (inactive) | > 100 µM (inactive) | – | > 100 µM (inactive) | > 100 µM (inactive) | > 100 µM (inactive) | > 100 µM (inactive) | > 100 µM (inactive) | > 100 µM (inactive) | > 100 µM (inactive) | > 100 µM (inactive)
3 | N#C[BH2-][n+]1cn(C2CC(O)C(COP(=O)(O)OC3CC(n4cnc5c(=O)[nH]c(N)nc54)OC3CO)O2)c2nc(N)[nH]c(=O)c21 (stereo not drawn) | > 100 µM (inactive) | > 100 µM (inactive) | > 100 µM (inactive) | 23.1 µM (inactive) | 97.3 µM (inactive) | > 100 µM (inactive) | > 100 µM (inactive) | 6.25 µM (inactive) | > 100 µM (inactive) | – | > 100 µM (inactive) | – | > 100 µM (inactive) | – | > 100 µM (inactive) | 22 µM (inactive) | – | – | > 100 µM (inactive) | > 100 µM (inactive)
4 | Cc1cc2c(cc1C)C(=O)/C(=C/c1ccccc1C(=O)O)C2 | 30.5 µM (inactive) | 54.7 µM (inactive) | 23.6 µM (inactive) | 15.3 µM (inactive) | > 100 µM (inactive) | 19.6 µM (inactive) | 35 µM (inactive) | 25.6 µM (inactive) | 55.5 µM (inactive) | 25.4 µM (inactive) | 45.2 µM (inactive) | 25.9 µM (inactive) | 47.8 µM (inactive) | 37.2 µM (inactive) | 47.8 µM (inactive) | > 100 µM (inactive) | > 100 µM (inactive) | – | 18.7 µM (inactive) | 50.7 µM (inactive)
5 | c1ccc2c(c1)cc1ccc3cccc4ccc2c1c34 | > 100 µM (inactive) | 67.9 µM (inactive) | – | > 100 µM (inactive) | > 100 µM (inactive) | > 100 µM (inactive) | – | > 100 µM (inactive) | 26.2 µM (inactive) | > 100 µM (inactive) | > 100 µM (inactive) | > 100 µM (inactive) | – | > 100 µM (inactive) | > 100 µM (inactive) | > 100 µM (inactive) | > 100 µM (inactive) | > 100 µM (inactive) | > 100 µM (inactive) | 9.04 µM (inactive)
6 | CCN(CC)Cc1ccc(Nc2c3ccccc3nc3ccccc23)cc1 | 2.79 µM (inactive) | 1.81 µM (inactive) | 2.17 µM (inactive) | – | 1.72 µM (inactive) | 1.99 µM (inactive) | 2.57 µM (inactive) | 10.1 µM (inactive) | 3.17 µM (inactive) | 0.955 µM (active) | 2.31 µM (inactive) | 1.56 µM (inactive) | 1.36 µM (inactive) | 1.6 µM (inactive) | 1.53 µM (inactive) | 3 µM (inactive) | 6.14 µM (inactive) | 2 µM (inactive) | 1.8 µM (inactive) | 3.3 µM (inactive)
7 | CCCC#CC(O)(C(=O)OC1CCN(C)CC1)C1CCCCC1 (stereo not drawn) | – | > 100 µM (inactive) | > 100 µM (inactive) | 94.4 µM (inactive) | > 100 µM (inactive) | > 100 µM (inactive) | > 100 µM (inactive) | 88.7 µM (inactive) | > 100 µM (inactive) | 91.6 µM (inactive) | > 100 µM (inactive) | > 100 µM (inactive) | > 100 µM (inactive) | > 100 µM (inactive) | > 100 µM (inactive) | > 100 µM (inactive) | > 100 µM (inactive) | > 100 µM (inactive) | > 100 µM (inactive) | > 100 µM (inactive)
8 | C#CCOC(=O)C(N)CCSC (stereo not drawn) | > 100 µM (inactive) | > 100 µM (inactive) | > 100 µM (inactive) | > 100 µM (inactive) | > 100 µM (inactive) | > 100 µM (inactive) | – | > 100 µM (inactive) | > 100 µM (inactive) | > 100 µM (inactive) | > 100 µM (inactive) | > 100 µM (inactive) | > 100 µM (inactive) | – | > 100 µM (inactive) | > 100 µM (inactive) | > 100 µM (inactive) | > 100 µM (inactive) | – | > 100 µM (inactive)
9 | CC(CN(C)C)C(=O)c1ccccc1C(=O)O (stereo not drawn) | 22.7 µM (inactive) | 20.1 µM (inactive) | 52.4 µM (inactive) | – | 39.4 µM (inactive) | 26.5 µM (inactive) | 35.5 µM (inactive) | 9.59 µM (inactive) | 30.5 µM (inactive) | 20.4 µM (inactive) | 25.9 µM (inactive) | 33.4 µM (inactive) | 22 µM (inactive) | 30.9 µM (inactive) | 29.5 µM (inactive) | 44 µM (inactive) | 19.5 µM (inactive) | 39.4 µM (inactive) | – | 51.1 µM (inactive)
10 | CCOC1OC(CO[Si](C)(C)C(C)(C)C)C(O)CC1n1ccc(=O)[nH]c1=O (stereo not drawn) | – | > 100 µM (inactive) | > 100 µM (inactive) | > 100 µM (inactive) | 30.8 µM (inactive) | > 100 µM (inactive) | > 100 µM (inactive) | > 100 µM (inactive) | 88.7 µM (inactive) | 27.7 µM (inactive) | > 100 µM (inactive) | 17.4 µM (inactive) | > 100 µM (inactive) | 31.9 µM (inactive) | > 100 µM (inactive) | 21.5 µM (inactive) | > 100 µM (inactive) | – | 75.7 µM (inactive) | > 100 µM (inactive)
11 | CC(=O)Nc1sc(Br)cc1S(=O)(=O)c1ccc(Cl)cc1 | 21.9 µM (inactive) | 38.1 µM (inactive) | 26.2 µM (inactive) | 19.1 µM (inactive) | 20 µM (inactive) | 29.4 µM (inactive) | 23.2 µM (inactive) | 35.6 µM (inactive) | 20.3 µM (inactive) | 35.1 µM (inactive) | 71.9 µM (inactive) | – | 32.1 µM (inactive) | 21.1 µM (inactive) | 43.5 µM (inactive) | 44.4 µM (inactive) | 46.7 µM (inactive) | 43.1 µM (inactive) | 0.731 µM (active) | 37.2 µM (inactive)
12 | COC(=O)C1=C(O)C(C(=O)OC)[C@]2(O)[C@H](C(=O)OC)[C@H]1C[C@@H](c1ccc(OC)cc1)[C@H]2C(=O)OC (stereo partly drawn) | – | 12.1 µM (inactive) | 20.7 µM (inactive) | 30.3 µM (inactive) | 16 µM (inactive) | 23.6 µM (inactive) | 19.8 µM (inactive) | 30.8 µM (inactive) | 19.5 µM (inactive) | 10.2 µM (inactive) | 21.5 µM (inactive) | 24.4 µM (inactive) | 17.7 µM (inactive) | 15.5 µM (inactive) | 8.71 µM (inactive) | 34.6 µM (inactive) | 34.3 µM (inactive) | 29 µM (inactive) | 28.3 µM (inactive) | 26.3 µM (inactive)
13 | CC(C)(C)n1c(=O)n2n(c1=O)Cc1cccc3cccc(c13)C2 | – | 24 µM (inactive) | 17 µM (inactive) | – | 13.9 µM (inactive) | 25.6 µM (inactive) | 19.6 µM (inactive) | 31.8 µM (inactive) | 14.7 µM (inactive) | 14.8 µM (inactive) | 19.3 µM (inactive) | 23.8 µM (inactive) | 14.2 µM (inactive) | 10.3 µM (inactive) | 22.1 µM (inactive) | 11.3 µM (inactive) | 29.1 µM (inactive) | 27.1 µM (inactive) | 17.2 µM (inactive) | 15 µM (inactive)
14 | CCOC(=O)c1nnc2c(C#N)c(-c3ccccc3)c(C)n2c1N | – | 23.9 µM (inactive) | > 100 µM (inactive) | – | 98.4 µM (inactive) | 38.3 µM (inactive) | 10.9 µM (inactive) | 40.4 µM (inactive) | 30.6 µM (inactive) | 30.5 µM (inactive) | 37.8 µM (inactive) | 34.7 µM (inactive) | 20.7 µM (inactive) | 31.8 µM (inactive) | 27 µM (inactive) | 22.2 µM (inactive) | 37 µM (inactive) | 23.9 µM (inactive) | 30.9 µM (inactive) | 38 µM (inactive)
15 | O=C1c2ccccc2C2(c3ccc(F)cc3)NCCN12 (stereo not drawn) | > 100 µM (inactive) | > 100 µM (inactive) | > 100 µM (inactive) | > 100 µM (inactive) | > 100 µM (inactive) | > 100 µM (inactive) | > 100 µM (inactive) | > 100 µM (inactive) | > 100 µM (inactive) | > 100 µM (inactive) | > 100 µM (inactive) | – | > 100 µM (inactive) | > 100 µM (inactive) | > 100 µM (inactive) | > 100 µM (inactive) | > 100 µM (inactive) | > 100 µM (inactive) | – | > 100 µM (inactive)
